Assay results reported in PubChem BioAssay AID192 (DTP/NCI, 2004).
Where “and” joins values, the source holds several entries; their conditions need not be identical. Equal entries are not always repeated. Inconclusive results and toxic doses are left out.

Test system: BDF1 mice, B16 melanoma ip, median survival T/C
Assay: NCI In Vivo Anticancer Drug Screen. Data for tumor model B16 Melanoma (intraperitoneal) in B6D2F1 (BDF1) mice
Settings: endpoint: median survival time, higher = longer survival
In short: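 Read-out: survival or tumor size, given as treated/control ratio. Controls received vehicle only; animals bore transplantable tumors.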

[1] = dose: 5.0 mg/kg/injection, schedule: Q01DX009 (ip), vehicle: saline with Tween-80
[2] = dose: 50.0 mg/kg/injection, schedule: Q01DX009 (ip), vehicle: Klucel (hydroxypropylcellulose) (HPC)
[3] = dose: 12.5 mg/kg/injection, schedule: Q01DX009 (ip), vehicle: saline
[4] = dose: 25.0 mg/kg/injection, schedule: Q01DX009 (ip), vehicle: saline
[5] = dose: 50.0 mg/kg/injection, schedule: Q01DX009 (ip), vehicle: saline
[6] = dose: 100.0 mg/kg/injection, schedule: Q04DX003 (ip), vehicle: Klucel (hydroxypropylcellulose) (HPC)
[7] = dose: 200.0 mg/kg/injection, schedule: Q04DX003 (ip), vehicle: Klucel (hydroxypropylcellulose) (HPC)
[8] = dose: 400.0 mg/kg/injection, schedule: Q04DX003 (ip), vehicle: Klucel (hydroxypropylcellulose) (HPC)
[9] = dose: 6.25 mg/kg/injection, schedule: Q01DX009 (ip), vehicle: Klucel (hydroxypropylcellulose) (HPC)
[10] = dose: 12.5 mg/kg/injection, schedule: Q01DX009 (ip), vehicle: Klucel (hydroxypropylcellulose) (HPC)
[11] = dose: 25.0 mg/kg/injection, schedule: Q01DX009 (ip), vehicle: Klucel (hydroxypropylcellulose) (HPC)
[12] = dose: 25.0 mg/kg/injection, schedule: Q01DX009 (ip), vehicle: saline with Tween-80
[13] = dose: 50.0 mg/kg/injection, schedule: Q01DX009 (ip), vehicle: saline with Tween-80
[14] = dose: 100.0 mg/kg/injection, schedule: Q01DX009 (ip), vehicle: saline with Tween-80

c1ccc([P+](c2ccccc2)(c2ccccc2)c2ccccc2)cc1
T/C (dose: 0.13 mg/kg/injection, schedule: Q01DX009 (ip), vehicle: saline): 102 % of control | T/C (dose: 0.2 mg/kg/injection, schedule: Q01DX009 (ip), vehicle: saline): 102 % of control | T/C (dose: 0.3 mg/kg/injection, schedule: Q01DX009 (ip), vehicle: saline): 102 % of control | T/C (dose: 0.44 mg/kg/injection, schedule: Q01DX009 (ip), vehicle: saline): 113 % of control | T/C (dose: 0.63 mg/kg/injection, schedule: Q04DX003 (ip), vehicle: saline): 100 % of control | T/C (dose: 0.66 mg/kg/injection, schedule: Q01DX009 (ip), vehicle: saline): 110 % of control | T/C (dose: 1.0 mg/kg/injection, schedule: Q01DX009 (ip), vehicle: saline): 113 % of control | T/C (dose: 1.25 mg/kg/injection, schedule: Q01DX009 (ip), vehicle: saline with Tween-80): 97 % of control | T/C (dose: 1.25 mg/kg/injection, schedule: Q04DX003 (ip), vehicle: saline): 100 % of control | T/C (dose: 1.5 mg/kg/injection, schedule: Q01DX009 (ip), vehicle: saline): 113 % of control | T/C (dose: 2.5 mg/kg/injection, schedule: Q01DX009 (ip), vehicle: saline with Tween-80): 104 % of control | T/C (dose: 2.5 mg/kg/injection, schedule: Q04DX003 (ip), vehicle: saline): 102 % of control | T/C [1]: 111 % of control | T/C (dose: 5.0 mg/kg/injection, schedule: Q04DX003 (ip), vehicle: saline): 89 % of control

O=C1C(=O)c2ccccc2C(O)=C1CCCc1ccc(OCc2ccccc2)cc1
T/C [1]: 101 % of control | T/C (dose: 10.0 mg/kg/injection, schedule: Q01DX009 (ip), vehicle: saline with Tween-80): 100 % of control | T/C (dose: 20.0 mg/kg/injection, schedule: Q01DX009 (ip), vehicle: saline with Tween-80): 103 % of control

CCC1CCCCC1(O)CC (stereo unspecified)
T/C [2]: 98 % of control | T/C (dose: 100.0 mg/kg/injection, schedule: Q01DX009 (ip), vehicle: Klucel (hydroxypropylcellulose) (HPC)): 99 % of control

CC1=CC(=O)N(NC(N)=O)C1=O
T/C [3]: 107 % of control | T/C [4]: 96 % of control | T/C [5]: 87 % of control

COc1ccc2c(c1)CN(S(=O)(=O)c1ccc(C)cc1)C=CC2=O
T/C [6]: 108 % of control | T/C [7]: 103 % of control | T/C [8]: 97 % of control

CN=C1N[N+]2=CCCCC2S1 (stereo unspecified)
T/C (dose: 40.0 mg/kg/injection, schedule: Q01DX011 (ip), vehicle: saline): 104 % of control | T/C (dose: 60.0 mg/kg/injection, schedule: Q01DX011 (ip), vehicle: saline): 112 % of control | T/C (dose: 80.0 mg/kg/injection, schedule: Q01DX011 (ip), vehicle: saline): 111 % of control

FC(F)(F)c1ccc2c(c1)N(CCCN1CCN(CC[n+]3ccccc3)CC1)c1ccccc1S2
T/C (dose: 1.25 mg/kg/injection, schedule: Q01DX009 (ip), vehicle: saline): 100 % of control | T/C (dose: 2.5 mg/kg/injection, schedule: Q01DX009 (ip), vehicle: saline): 105 % of control | T/C (dose: 5.0 mg/kg/injection, schedule: Q01DX009 (ip), vehicle: saline): 105 % of control and 107 % of control | T/C (dose: 10.0 mg/kg/injection, schedule: Q01DX009 (ip), vehicle: saline): 89 % of control and 97 % of control

O=S1(=O)C=CCCC=C1
T/C [9]: 102 % of control | T/C [10]: 98 % of control | T/C [11]: 95 % of control | T/C [2]: 98 % of control and 102 % of control

C=CCSC(C)CC (stereo unspecified)
T/C [12]: 108 % of control | T/C [13]: 119 % of control | T/C [14]: 107 % of control

COc1ccc(CC2C(=O)NC(C)C(=O)N(C)C3C(=O)N(C)C(Cc4ccc(O)c(c4)Oc4ccc(cc4)C3O)C(=O)NC(C)C(=O)NC(C)C(=O)N2C)cc1 (stereo unspecified) (tested in a mixture with another compound)
T/C (dose: 0.12 mg/kg/injection, schedule: Q01DX009 (ip), vehicle: other): 97 % of control | T/C (dose: 0.25 mg/kg/injection, schedule: Q01DX009 (ip), vehicle: other): 109 % of control | T/C (dose: 0.5 mg/kg/injection, schedule: Q01DX009 (ip), vehicle: other): 161 % of control | T/C (dose: 1.0 mg/kg/injection, schedule: Q01DX009 (ip), vehicle: other): 152 % of control | T/C (dose: 1.0 mg/kg/injection, schedule: Q01DX009 (ip), vehicle: saline with Tween-80): 154 % of control | T/C (dose: 2.0 mg/kg/injection, schedule: Q01DX009 (ip), vehicle: saline with Tween-80): 157 % of control | T/C (dose: 250.0 micrograms/kg/injection, schedule: Q01DX009 (ip), vehicle: saline): 152 % of control | T/C (dose: 2000.0 micrograms/kg/injection, schedule: Q01DX009 (ip), vehicle: saline): 154 % of control

CCCCc1c(C)[nH]c(=S)[nH]c1=O
T/C [12]: 110 % of control | T/C [13]: 104 % of control | T/C [14]: 97 % of control

CNc1ccc(S(=O)(=O)O)cc1
T/C [6]: 100 % of control | T/C [7]: 100 % of control | T/C [8]: 86 % of control

CCCOCC(O)CO (stereo unspecified)
T/C (dose: 100.0 mg/kg/injection, schedule: Q01DX009 (ip), vehicle: saline): 118 % of control | T/C (dose: 200.0 mg/kg/injection, schedule: Q01DX009 (ip), vehicle: saline): 118 % of control | T/C (dose: 400.0 mg/kg/injection, schedule: Q01DX009 (ip), vehicle: saline): 112 % of control

Cc1cc2nc3ccc(N)cc3oc-2cc1=[N+](C)C
T/C [9]: 105 % of control | T/C (dose: 6.25 mg/kg/injection, schedule: Q01DX009 (ip), vehicle: saline): 123 % of control | T/C [10]: 110 % of control | T/C [3]: 119 % of control | T/C [11]: 117 % of control

O=C(CCN1CC1)Nc1cccc(NC(=O)CCN2CC2)c1
T/C (dose: 2.5 mg/kg/injection, schedule: Q01DX009 (ip), vehicle: Klucel (hydroxypropylcellulose) (HPC)): 156 % of control | T/C (dose: 5.0 mg/kg/injection, schedule: Q01DX009 (ip), vehicle: Klucel (hydroxypropylcellulose) (HPC)): 153 % of control and 173 % of control | T/C (dose: 10.0 mg/kg/injection, schedule: Q01DX009 (ip), vehicle: Klucel (hydroxypropylcellulose) (HPC)): 211 % of control and 268 % of control

CC(=O)OC1CC(O)C23COC(O)C1(C)C2CC(O)C1(C)C3C(=O)C(O)C2(C)C(c3ccoc3)CC3OC321 (stereo unspecified)
T/C (dose: 0.13 mg/kg/injection, schedule: Q01DX009 (ip), vehicle: saline + alcohol): 111 % of control | T/C (dose: 0.25 mg/kg/injection, schedule: Q01DX009 (ip), vehicle: saline + alcohol): 102 % of control | T/C (dose: 0.5 mg/kg/injection, schedule: Q01DX009 (ip), vehicle: saline + alcohol): 115 % of control | T/C (dose: 1.0 mg/kg/injection, schedule: Q01DX009 (ip), vehicle: saline + alcohol): 98 % of control

O=C(O)c1c(-c2ccccc2)[nH]c2cc(Cl)ccc2c1=O
T/C [3]: 100 % of control | T/C [4]: 102 % of control | T/C [5]: 102 % of control | T/C (dose: 100.0 mg/kg/injection, schedule: Q04DX003 (ip), vehicle: saline with Tween-80): 109 % of control | T/C (dose: 200.0 mg/kg/injection, schedule: Q01DX005 (ip), vehicle: saline): 95 % of control | T/C (dose: 200.0 mg/kg/injection, schedule: Q04DX003 (ip), vehicle: saline with Tween-80): 102 % of control

COC(=O)c1cc(I)ccc1O
T/C [14]: 102 % of control | T/C (dose: 200.0 mg/kg/injection, schedule: Q01DX009 (ip), vehicle: saline with Tween-80): 104 % of control | T/C (dose: 400.0 mg/kg/injection, schedule: Q01DX009 (ip), vehicle: saline with Tween-80): 102 % of control

Cc1ccc[c]([Hg][Cl])c1N=Nc1ccccc1
T/C (dose: 0.39 mg/kg/injection, schedule: Q01DX009 (ip), vehicle: saline with Tween-80): 101 % of control | T/C (dose: 0.78 mg/kg/injection, schedule: Q01DX009 (ip), vehicle: saline with Tween-80): 100 % of control | T/C (dose: 1.56 mg/kg/injection, schedule: Q01DX009 (ip), vehicle: saline with Tween-80): 97 % of control | T/C (dose: 3.12 mg/kg/injection, schedule: Q01DX009 (ip), vehicle: saline with Tween-80): 97 % of control | T/C (dose: 6.25 mg/kg/injection, schedule: Q01DX009 (ip), vehicle: saline with Tween-80): 94 % of control

Nc1nc(N)c(-c2ccc(Cl)c(Cl)c2)c(CP(Cl)(Cl)(Cl)Br)n1
T/C (dose: 6.3 mg/kg/injection, schedule: Q01DX009 (ip), vehicle: Klucel (hydroxypropylcellulose) (HPC)): 112 % of control | T/C [10]: 111 % of control | T/C [11]: 115 % of control | T/C [2]: 123 % of control
